Assay [1] concerns S. epidermidis ATCC 12228. Kind of assay: Antimicrobial activity test on inoculated M17 agar plates (inhibition halo). It counts as cell-based, Staphylococcus epidermidis. To be noted: 2 μl of 1 mg/ml aqueous solution on inoculated M17 agar plate, overnight incubation. The method, then: (§1) Bacterial strains were grown overnight in liquid culture on rotary shakers or on agar plates using M17 media supplemented with 0.5% glucose. S. aureus ATCC 6538 and S. epidermidis ATCC 12228 liquid cultures and agar plates were grown anaerobically at 37° C. Culture volume utilized in MIC assays was 200 μl.
(§2) Antimicrobial activities of bacteriocins were tested on M17 agar plates in Examples 1 and 3. In Example 1, 2 μl of bacteriocin peptide (SEQ ID NO: 1) aqueous solutions at a concentration of 1 mg/ml were deposited on inoculated M17 agar plates of S. aureus ATCC 6538 and S. epidermidis ATCC 12228. An equivalent amount of aureocin A53 aqueous solution (1 mg/ml concentration) was used as positive control. In the case of S. epidermidis ATCC 12228, an equivalent amount of pediocin A1 aqueous solution (1 mg/ml concentration) was used as negative control.

In assay [2] the test system is S. aureus ATCC 6538. The description is as above. The assay is classed as cell-based, Staphylococcus aureus. As to conditions: for antimicrobial activity of variants (inhibition halo): 5 μl of 1 mg/ml aqueous solution on M17 agar plates of S. aureus ATCC 6538, overnight incubation, compared with SEQ ID NO: 1. As to the method:
as §1, §2
In Example 3, 5 μl of bacteriocin peptides (SEQ ID NO: 1, 3-97) aqueous solutions at a concentration of 1 mg/ml were deposited on inoculated M17 agar plates of S. aureus ATCC 6538. After overnight incubation, the presence of an inhibition halo was considered as a positive result of antimicrobial activity.

Assay [3] deals with S. aureus ATCC 6538. Kind of assay: MIC assay in liquid cultures (endpoint OD600). As to conditions: calculated as average concentration between wells 10 and 11. It counts as cell-based, Staphylococcus aureus. As to the method: as §1
(§3) Determination of bacteriocin (SEQ ID NO: 1) MIC values was performed in liquid cultures. Growth was assessed by measuring endpoint OD600 values in a Spectramax i3 (Molecular Devices, CA, USA). Minimum inhibitory concentration (MIC) was defined as the lowest concentration of bacteriocin which inhibited 50% of the growth of cultures as compared to reference cultures not exposed to the bacteriocin. Concentration of the bacteriocin in well 11 was 250 μg/ml in the case of S. aureus ATCC 6538 and 500 μg/ml in the case of S. epidermidis ATCC 12228, diluted 2-fold per subsequent well as shown in Table 3 (concentrations rounded to the second decimal): […]

The test system of assay [4] is S. epidermidis ATCC 12228. The assay can be described thus: MIC assay in liquid cultures (endpoint OD600). The assay is classed as cell-based, Staphylococcus epidermidis. To be noted: liquid culture, concentrations 0.49 to 500 μg/ml. As to the method: as §1, §3

“Also recorded” adds a separate entry of the source. Ends that are not written are not given here.

The values below come from patent US20240285726A1, “Bacteriocin for new application” (Syngulon S.A., priority 2021, published 2024).

For pediocin A1 [reference compound], in assay [1], the “inhibition halo on agar plate” value is “no inhibition halo was visible”. For “MAFLKLVAKLGPKAAKWAWANKGKVLGWIRDGLAIDWIINKINDIVN [SEQ ID NO: 54]”, in assay [2], the “antimicrobial activity of variants (inhibition halo)” value is listed as “did not compromise its antimicrobial activity”. aureocin A53 [reference compound]: the “inhibition halo on agar plate” value in assay [1] is “an inhibition halo was present”.

For “MLAFLKLVAKLGPKAAKWAWANKGKVLGWIRDGLAIDWIINKINDIVN [SEQ ID NO: 1]”, the “inhibition halo on agar plate” value in assay [2] (2 μl of 1 mg/ml aqueous solution on inoculated M17 agar plate, overnight incubation, S. aureus ATCC 6538) is “An inhibition halo was visible”; in assay [1], “no inhibition halo was visible; also recorded: no inhibition halo was present”. The “MIC (lowest concentration inhibiting 50% of culture growth)” value in assay [3] was 188 µg/mL. For the same substance, in assay [4], the “growth inhibition in MIC assay” value is “No growth inhibition was observed”. As to “MLFLKLVAKLGPKAAKWAWANKGKVLGWIRDGLAIDWIINKINDIVN [SEQ ID NO: 55]”, the “antimicrobial activity of variants (inhibition halo)” value in assay [2] is recorded as “did not compromise its antimicrobial activity”. The same measure, in the same setting: the entry for “MLAFLKLVAKLGPKAAKWAWANKGKVLGWIRDGLAIINKINDIVN [SEQ ID NO: 62]” is “did not compromise its antimicrobial activity”.
